Measured values reported in patent US20230089073A1 (Carmot Therapeutics, Inc., priority 2021, published 2023).

Columns and labels:
human GLP-1 receptor = biological target: T1, human GLP-1 receptor (Homo sapiens, UniProt P43220); test: GLP-1R cAMP Assay; format: cell-based; details: cAMP accumulation in CHO cells stably overexpressing the human GLP-1 receptor; 30 min treatment; HitHunter cAMP kit; read-out: EC50
T1 construct: expressed in transfected cells
Method in brief: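 Luminescent enzyme-complementation detection of cAMP, read after cell lysis and overnight incubation, with dose-response curve fitting. Stimulation lasted 30 min, using 20-point triplicate dosing on CHO cells (10,000 per well) stably overexpressing human GLP-1R.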

cynomolgus monkeys = test: Intravenous Glucose Tolerance Test (IVGTT) in Cynomolgus Monkeys; format: in vivo, cynomolgus monkeys (Macaca fascicularis); details: test article intravenous bolus 1-6 minutes prior to IV glucose 0.5 g/kg, plasma insulin 0-60 minutes, FIG. 1
Method: Intravenous Glucose Tolerance Test (IVGTT) in Cynomolgus Monkeys
Aged ([…]) cynomolgus monkeys (Macaca fascicularis; N=4-5/test article) were fasted overnight and anesthetized with ketamine prior to the intravenous glucose tolerance test (IVGTT). The test articles were formulated at 6 mg/mL in vehicle (5% polyethylene glycol 400: 95% (12% (w/v) sulfobutylether-β-cyclodextrin in deionized water) (v/v)]) and administered by intravenous bolus into a peripheral vein 1-6 minutes prior to the IVGTT. The IVGTT was initiated by administration of an IV bolus of glucose (0.5 g/kg as a 50% glucose solution). Blood samples were collected from a peripheral vein 0, 1, 3, 5, 10, 20, 40 and 60 minutes upon completion of the IV bolus glucose injection. The blood samples were collected directly into potassium ethylene diamine tetra-acetic acid tubes and plasma separated by centrifugation at 2,500 g for 10 minutes within 30 minutes of collection. The plasma from all time points was analyzed for insulin concentrations ([…]) using a Cobas e411 Immunology analyzer. Insulin area-under-the-curve (AUC) was calculated using GraphPad Prism software (v 9).

T1 sequence (P43220 24-463): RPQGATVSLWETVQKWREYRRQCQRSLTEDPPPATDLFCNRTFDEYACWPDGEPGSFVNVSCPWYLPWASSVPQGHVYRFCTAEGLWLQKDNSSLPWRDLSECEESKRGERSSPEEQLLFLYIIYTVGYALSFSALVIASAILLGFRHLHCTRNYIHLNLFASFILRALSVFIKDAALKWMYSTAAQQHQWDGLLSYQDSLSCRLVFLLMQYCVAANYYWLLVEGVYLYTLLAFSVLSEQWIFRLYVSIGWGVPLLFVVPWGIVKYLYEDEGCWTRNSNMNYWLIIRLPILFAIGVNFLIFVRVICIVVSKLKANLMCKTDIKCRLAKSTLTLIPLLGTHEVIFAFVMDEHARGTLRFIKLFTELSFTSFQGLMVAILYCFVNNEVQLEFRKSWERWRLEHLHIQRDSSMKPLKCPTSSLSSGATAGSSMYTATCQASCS

Row | SMILES | EC50 (human GLP-1 receptor) [nM] | insulin AUC (insulin secretion) (cynomolgus monkeys)
1 | C[C@H]1C[C@@H](Oc2ccnc(COc3ccc(F)cc3C#N)n2)CCN1Cc1nc2ccc(C(=O)O)cc2n1C[C@@H]1CCO1 [Example 355, 2-(((2S,4S)-4-((2-((2-cyano-4-fluorophenoxy)methyl)pyrimidin-4-yl)oxy)-2-methylpiperidin-1-yl)methyl)-1-(((S)-oxetan-2-yl)methyl)-1H-benzo[d]imidazole-6-carboxylic acid] | < 50 | substantial increase
2 | O=C(O)c1ccc2nc(CN3CCC(Oc4ccnc(COc5ccc(F)cc5Cl)n4)CC3)n(C[C@@H]3CCO3)c2c1 [Compound 326] | < 50 | substantial increase
3 | O=C(O)c1ccc2nc(CN3CCC(Oc4ccnc(COc5ccc(C(F)(F)F)cc5F)n4)CC3)n(C[C@@H]3CCO3)c2c1 [Compound 338] | < 50 | substantial increase
4 | CCn1cncc1Cn1c(CN2CCC(Oc3ccnc(COc4ccc(Cl)cc4Cl)c3)CC2)nc2ccc(C(=O)O)cc21 [Example 145, 2-((4-((2-((2,4-Dichlorophenoxy)methyl)pyridin-4-yl)oxy)piperidin-1-yl)methyl)-1-((1-ethyl-1H-imidazol-5-yl)methyl)-1H-benzo[d]imidazole-6-carboxylic acid] | < 50 | substantial increase

More lines, main results first:

Row | EC50 (human GLP-1 receptor) [nM] | SMILES | insulin AUC (insulin secretion) (cynomolgus monkeys)
5 | < 50 | O=C(O)c1cc(F)c2nc(CN3CCC(Oc4ccnc(COc5ccc(Cl)cc5F)c4)CC3)n(C[C@@H]3CCO3)c2c1 [Compound 335] | substantial increase
6 | < 50 | C[C@H]1C[C@@H](Oc2ccnc(COc3ccc(C#N)cc3F)n2)CCN1Cc1nc2ccc(C(=O)O)cc2n1C[C@@H]1CCO1 [Example 313, 2-(((2S,4S)-4-((2-((4-Cyano-2-fluorophenoxy)methyl)pyrimidin-4-yl)oxy)-2-methylpiperidin-1-yl)methyl)-1-(((S)-oxetan-2-yl)methyl)-1H-benzo[d]imidazole-6-carboxylic acid] | substantial increase
7 | < 50 | CCn1cncc1Cn1c(CN2CCC(Oc3ccnc(COc4ccc(Cl)cc4C#N)c3)CC2)nc2ccc(C(=O)O)cc21 [Compound 171, 2-{[4-({2-[(4-chloro-2-cyanophenoxy)methyl]pyridin-4-yl}oxy)piperidin-1-yl]methyl}-1-[(1-ethyl-1H-imidazol-5-yl)methyl]-1H-1,3-benzodiazole-6-carboxylic acid] | substantial increase
